Read-outs that look alike come from different tables or passages of the source.
Assays:
THP1/LXR-Luc cells = assay: LXR-luciferase reporter bioassay in PMA-differentiated THP1/LXR-Luc cells; assay type: cell-based, human; conditions: for EC50: Homo sapiens, THP-1, 48 h, read-out: EC50
Description: To test the efficacy of anti-MSR1 antibody-LXR conjugates in vitro, a cell-based LXR responsive luciferase reporter assay was developed. To generate the assay cell line, a LXR regulated luciferase reporter gene [Cignal Lenti LXR Reporter (luc) kit (Qiagen, Cat # CLS-001L)] was transduced into THP1 cells, and cells were selected for two weeks in puromycin. The lentivirus expresses the firefly luciferase gene under the control of a minimal CMV promoter and tandem repeats of the LXR transcriptional response element. The resulting cell line is referred to as THP1/LXR-Luc cells.
THP1/LXR-Luc cells were seeded onto 96 well plates at 40,000 cells/well in media containing RPMI supplemented with 10% FBS and pencillin/streptomycin and subsequently differentiated with 200 nM Phorbol Myristate Acetate (PMA) for 3 days. After the 3-day differentiation period, three-fold serial dilutions of antibody drug conjugates, unconjugated antibodies, or free payloads in fresh media were added to the cells at final concentration ranging from 100 nM to 0.01 nM. Media alone served as a blank control. Forty-eight hours later, luciferase activity was determined after the addition of One-Glo™ reagent (Promega, Cat # E6130) to each well. Relative light units (RLUs) were measured on a Victor luminometer (PerkinElmer) and EC50 values were determined using a four-parameter logistic equation over a 10-point dose response curve (GraphPad Prism). The signal to noise (S/N) was determined by calculating the ratio of RLU of standard one over RLU of standard eight for each of the unconjugated anti-MSR1 antibodies or free payloads. “LP #” represents a linker-payload for which the corresponding structures are provided elsewhere herein, and “P #” represents a payload for which the corresponding structures are provided elsewhere herein.

ABCG1 = ABCG1 mRNA induction in differentiated THP-1 macrophages (TaqMan); assay type: cell-based, human; conditions: THP1 macrophages, 24-hour treatment; magnitude in words
Experimental: To determine the ability of LXR agonists to activate ABCA1 and ABCG1 genes, the mRNA levels of these two genes in differentiated macrophages was measured. […] Cells were differentiated into macrophages by treatment with 100 nM Phorbol-12 myristate 13-acetate (Sigma, # P8139), which was added to the media described above, for 72 hours. […] Chloroform was then used for phase separation. The aqueous phase, containing total RNA, was purified using MagMAX™-96 for Microarrays Total RNA Isolation Kit (Ambion, Cat # AM1830) and reverse-transcribed into cDNA using SuperScript® VILO™ Master Mix (Invitrogen, Cat #11755050) as per the manufacturer's instructions. TaqMan® was performed using Gene Expression Master Mix, the ABI 7900HT Sequence Detection System (Applied Biosystems) and the primers and probes indicated below in Table 9. The GAPDH gene was used as the internal control gene to normalize any cDNA input differences.

THP1/LXR-Luc/Her2 cells = assay: THP1/LXR-Luc/Her2 luciferase reporter bioassay; assay type: cell-based; conditions: Homo sapiens
Description: A bioassay was developed to assess the activity of LXR agonists after internalization of an agonist or of a ncADC into cells and binding to LXR, a nuclear receptor, using a commercially available LXR reporter (referred to as LXR-Luc) that contains the firefly luciferase gene under control by minimal CMV promoter and tandem repeats of the LXR transcriptional response element. For this assay, a THP1 cell line, which is a human monocytic leukaemia line, was engineered to express full length human Her2 (expressing amino acids M1 through V1255 of accession number NP_004439.2). The subsequent stable cell line was further transduced with a Cignal LXR Luc Reporter (Qiagen, Cat # CLS-7041L). The resulting stable cell line is referred to herein as THP1/Her2/LXR-Luc. The Her2 cell surface expression on THP1/Her2/LXR-Luc cell line was confirmed by FACS (data not shown).
This example assessed the ability of the LXR agonists provided herein, reference compounds, and anti-Her2 antibody-LXR ncADC to activate LXR. The samples were tested in the THP1/LXR-Luc/Her2 bioassay. For the assay, either THP1/LXR-Luc cells or THP1/LXR-Luc/Her2 cells were seeded onto white 96 well plates at 30,000 cells/well in media containing RPMI supplemented with 10% FBS and pencillin/streptomycin (complete media). Subsequently 3-fold serial dilutions of antibody drug conjugates, unconjugated antibodies, or free payloads were added to the cells at final concentration ranging from 100 nM to 0.01 nM. After 48-hour or 72-hour incubation, luciferase activity was determined after the addition of One-Glo™ reagent (Promega, Cat # E6130) to each well of cells. Relative light units (RLUs) were measured on a Victor luminometer (PerkinElmer) and the EC5o values were determined using a four-parameter logistic equation over a 10-point dose response curve (GraphPad Prism) (FIG. 15). The fold activation is calculated based on the maximum activation of the free payload 9d.

LXR alpha = molecular target: T1, LXR alpha (Homo sapiens, UniProt Q13133); assay: LanthaScreen TR-FRET LXR alpha Coactivator Assay (cell-free binding); conditions: TR-FRET, 12-point curve; read-out: Cell free binding LXRα IC50
T1 construct: LXR alpha or beta LBD-GST; purchased ThermoFisher PV4655
T1 sequence (Q13133 209-447 limits assumed): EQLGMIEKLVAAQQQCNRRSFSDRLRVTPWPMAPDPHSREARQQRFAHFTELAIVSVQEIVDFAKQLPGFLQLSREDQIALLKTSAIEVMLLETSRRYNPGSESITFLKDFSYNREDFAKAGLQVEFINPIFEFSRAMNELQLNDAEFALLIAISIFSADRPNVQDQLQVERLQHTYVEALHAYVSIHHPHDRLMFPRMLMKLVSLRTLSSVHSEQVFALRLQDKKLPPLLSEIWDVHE

C[C@]1(C(=O)NC(=O)[C@@]2(C)CCC[C@]3(C)c4cc(O)ccc4CC[C@@H]23)CCC[C@]2(C)c3cc(N)ccc3CC[C@@H]12 [Compound 9d, (1S,4aS,10aR)—N-[(1S,4aS,10aR)-6-Amino-1,4a-dimethyl-1,2,3,4,4a,9,10,10a-octahydrophenanthrene-1-carbonyl]-6-hydroxy-1,4a-dimethyl-1,2,3,4,4a,9,10,10a-octahydrophenanthrene-1-carboxamide] was tested, and the EC50 (THP1/LXR-Luc cells; 48-hour time point, stimulation of THP1/Luc cells) was 15.9 nM, the EC50 (THP1/LXR-Luc cells; PMA-differentiated THP1/LXR-Luc cells, 48 hours, luciferase activity (One-Glo), 10-point dose response 100 nM to 0.01 nM) was 1.14 nM and the “S/N (signal to noise, ratio of RLU of standard one over RLU of standard eight)” value (THP1/LXR-Luc cells; PMA-differentiated THP1/LXR-Luc cells, 48 hours, luciferase activity) was 15.9. The “ABCG1 induction EC50” value (ABCG1) was “sub-picomolar”, the EC50 (THP1/LXR-Luc/Her2 cells; THP-1, 48 h, 48-hour time point) was 1.6 nM and the EC50 (THP1/LXR-Luc/Her2 cells; THP-1, 48 h, 48 hours, unit inferred, values correspond to M) was 1.6 nM. The EC50 (THP1/LXR-Luc/Her2 cells; THP-1, 72 h, 72-hour time point) was 2.8 nM, the EC50 (THP1/LXR-Luc/Her2 cells; THP-1, 72 h, 72 hours) was 2.8 nM and the IC50 (LXR alpha) was under 10 nM.

— US12338199B2, “Bis-octahydrophenanthrene carboxamides and protein conjugates thereof” (REGENERON PHARMACEUTICALS, INC., priority 2017, dated 2025)
